Columns and labels:
Fisher 344 rats [1] = experiment: EEG in rats administered mango leaf extract and/or caffeine, Example 5; assay type: in vivo, rat; settings: 0.50 mg/kg oral
Description: After automatic artefact rejection, signals were collected in sweeps of 4 s duration and Fast Fourier transformed using a Hanning window. […] Nine adult male Fisher 344 rats (5 months of age and day-night converted, weight about 350-400 g, were implanted with electrodes into the brain and were given two weeks for recovery from surgery. Three animals dropped the implant after performance of a placebo series. […] A crossover design with at least three days of drug holidays in between drug administrations was used. […] The animals were dosed orally at a constant volume of 1.0 ml/kg per kg body weight. The dosage administered to each animal was determined every day by the weight of that animal at the time of administration. Data were averaged from 5-9 animals, and are expressed as mean values±S.E.M.

[2] = test system: pyramidal cells in hippocampus slices of rat brains; experiment: Ex vivo population spikes in hippocampal slice preparation, Example 6
Procedure: Hippocampus slices of rat brains were tested. After daily administration of trial medication for one week, 4 animals were sacrificed under deep anesthesia and the hippocampus was removed and chopped by a vibrating razor blade to give 6 slices of about […] thickness per animal. Slices were taken one day after the last treatment. After adaptation to artificial cerebrospinal fluid for one hour, slices were transferred to an incubation chamber and superfused with cerebrospinal fluid at 35° C. Schaffer collaterals are branches extending from the axons of CA3 pyramidal cells in the hippocampus. Schaffer collaterals project to the CA1 area of the hippocampus, and are an integral part of memory formation. The Schaffer Collaterals were stimulated by single stimuli or theta burst stimuli, where theta burst stimuli are short bursts of stimulation at high frequencies, applied 5 times per second.

Fisher 344 rats [3] = experiment: EEG in freely moving rats, two recording periods, Example 2; assay type: in vivo, rat; settings: oral, FIG. 2B/2C, period not separated
Procedure: Products were provided to the test subjects orally (gavage).
EEG signals were recorded by telemetry from 4 implanted electrodes in the frontal cortex, hippocampus and striatum of freely moving rats from inside a totally copper shielded room.

MAOA = target: T1, MAOA (Homo sapiens, UniProt P21397); settings: said to underlie anti-depressant-like effect; cited from earlier work
T1 sequence (P21397 1-527): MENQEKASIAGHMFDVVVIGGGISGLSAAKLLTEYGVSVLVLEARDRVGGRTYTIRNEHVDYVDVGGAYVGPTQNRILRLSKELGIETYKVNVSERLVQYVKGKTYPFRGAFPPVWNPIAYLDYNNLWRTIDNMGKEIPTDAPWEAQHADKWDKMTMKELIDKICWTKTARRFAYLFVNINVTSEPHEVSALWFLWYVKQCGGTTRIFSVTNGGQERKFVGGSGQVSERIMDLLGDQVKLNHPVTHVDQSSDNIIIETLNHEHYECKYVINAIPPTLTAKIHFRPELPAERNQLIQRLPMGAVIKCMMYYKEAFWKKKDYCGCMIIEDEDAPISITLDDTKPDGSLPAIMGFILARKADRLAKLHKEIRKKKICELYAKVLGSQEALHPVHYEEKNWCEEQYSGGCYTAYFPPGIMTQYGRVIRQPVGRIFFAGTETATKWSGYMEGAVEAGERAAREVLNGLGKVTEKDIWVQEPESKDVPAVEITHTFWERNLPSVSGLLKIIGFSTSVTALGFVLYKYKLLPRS

acetylcholinesterase = acetylcholinesterase (Homo sapiens, UniProt P22303); settings: cited from earlier work
Sequence of acetylcholinesterase (P22303 32-614, species assumed): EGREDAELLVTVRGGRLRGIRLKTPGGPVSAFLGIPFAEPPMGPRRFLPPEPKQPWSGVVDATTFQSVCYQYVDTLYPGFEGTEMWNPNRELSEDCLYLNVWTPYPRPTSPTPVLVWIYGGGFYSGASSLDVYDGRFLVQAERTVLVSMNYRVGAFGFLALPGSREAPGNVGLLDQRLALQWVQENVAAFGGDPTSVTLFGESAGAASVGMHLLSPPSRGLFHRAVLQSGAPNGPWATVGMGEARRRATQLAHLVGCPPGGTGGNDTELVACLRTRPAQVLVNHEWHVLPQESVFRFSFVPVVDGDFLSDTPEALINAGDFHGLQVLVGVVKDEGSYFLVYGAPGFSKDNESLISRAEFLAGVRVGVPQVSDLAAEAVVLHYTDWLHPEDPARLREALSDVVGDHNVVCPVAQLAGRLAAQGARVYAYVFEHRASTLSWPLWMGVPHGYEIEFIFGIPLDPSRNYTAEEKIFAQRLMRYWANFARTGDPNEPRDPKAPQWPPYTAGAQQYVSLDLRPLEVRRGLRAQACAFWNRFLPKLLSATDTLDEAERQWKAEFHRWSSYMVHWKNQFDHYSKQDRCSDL

brain wave activity = experiment: General statements on CNS activity, equivalence, onset and duration after ingestion; assay type: in vivo
Fisher 344 rats [4] = experiment: EEG (electropharmacogram) in freely moving rats, Example 1; assay type: in vivo, rat; settings: oral gavage, 5-65 min after administration, FIG. 1
Procedure: Fisher 344 rats (11 months of age and day-night converted, weight about 350-400 g, provided by Charles River Laboratories, D-97633, Sulzfeld) were used in a series of experiments on the effects of various herbal and pharmaceutical products on central nervous system activity. Products were provided to the test subjects orally (gavage).
EEG signals were recorded by telemetry from 4 implanted electrodes in the frontal cortex, hippocampus and striatum of freely moving rats from inside a totally copper shielded room. Signals were collected in sweeps of 4 second duration and Fast Fourier transformed using a Hanning window. EEG signals were recorded over a period starting 5 minutes after administration of the test substances, and ending 65 minutes after administration of the test substances. Sampling frequency was 512 Hz. […] In an off-line procedure the spectra were averaged to give longer periods for further analysis and data presentation. Spectral activity within the frontal cortex, hippocampus, striatum and reticular formation was recorded.

SMILES	delta waves in the striatum (Fisher 344 rats [1]; FIG. 6)	delta, theta and beta power in the hippocampus (Fisher 344 rats [1]; FIG. 6)	delta power in the frontal cortex (Fisher 344 rats [1]; FIG. 6, p<0.1)	delta power in the frontal cortex and reticular formation (Fisher 344 rats [1]; from the second hour after administration on)	alpha2 power (Fisher 344 rats [1]; last hour, p<0.05 in the reticular formation)	Amplitude (population spike), Single Stimulation ([2]; SS, slices after one week daily dosing, caffeine 0.5 mg/kg, mango leaf extract 25 mg/kg)	Amplitude (population spike), Theta Burst Stimulation ([2]; TBS, slices after one week daily dosing, caffeine 0.5 mg/kg, mango leaf extract 25 mg/kg)	pyramidal cell activity ([2]; Table 1 and FIG. 11)	gamma wave activity in the striatum (Fisher 344 rats [3])	MAOA inhibition (MAOA)	acetylcholinesterase inhibition (acetylcholinesterase)	caffeine-type side-effects (nausea, fast or irregular pulse, irritability, loss of concentration) (brain wave activity; even at high servings or doses)	dose dependence of CNS stimulation beyond a threshold (brain wave activity; in vivo)	calming activity when ingested (brain wave activity; unlike caffeine)	CNS profile (EEG) compared with reference substances (Fisher 344 rats [4])
Cn1c(=O)c2c(ncn2C)n(C)c1=O [Caffeine]	minor but statistically conspicuous decrease	statistically significant attenuation	statistically conspicuous attenuation	statistically significant increases of delta power	increases of alpha2 power were observed except for the striatum	1.3 (SS) mv	3.1 (TBS) mv	significantly smaller effect on such activity than mango leaf extract							
O=c1c2cc(O)c(O)cc2oc2cc(O)c([C@@H]3O[C@H](CO)[C@@H](O)[C@H](O)[C@H]3O)c(O)c12 [Mangiferin]									not observed	inhibition of MAOA	acetylcholinesterase inhibiting activity	none of the well-known side-effects	plateau effect	calming, de-stressing activity	surprisingly similar to the CNS profiles of reference caffeine, citicolin and Guarana
